Results from US8039492B2, “Substituted cyclic compound, its preparation process and its medical use” (Shanghai Institute of Materia Medica, Chinese Academy of …, priority 2005, dated 2011).
One block for each compound: values may come before it.

Key:
GLP-1R [1] = target: T1, GLP-1R (Rattus norvegicus, UniProt P32301); experiment: Antagonistic experiment with Exendin9-39 on S4P-induced reporter gene expression in HEK 293/GLP-1R+Luc cells; format: cell-based
T1 construct: expressed in transfected cells; host or cells: HEK 293 (human embryonic kidney), stably transfected; self-made by National New Drugs Screening Center
T1 sequence (P32301 22-463): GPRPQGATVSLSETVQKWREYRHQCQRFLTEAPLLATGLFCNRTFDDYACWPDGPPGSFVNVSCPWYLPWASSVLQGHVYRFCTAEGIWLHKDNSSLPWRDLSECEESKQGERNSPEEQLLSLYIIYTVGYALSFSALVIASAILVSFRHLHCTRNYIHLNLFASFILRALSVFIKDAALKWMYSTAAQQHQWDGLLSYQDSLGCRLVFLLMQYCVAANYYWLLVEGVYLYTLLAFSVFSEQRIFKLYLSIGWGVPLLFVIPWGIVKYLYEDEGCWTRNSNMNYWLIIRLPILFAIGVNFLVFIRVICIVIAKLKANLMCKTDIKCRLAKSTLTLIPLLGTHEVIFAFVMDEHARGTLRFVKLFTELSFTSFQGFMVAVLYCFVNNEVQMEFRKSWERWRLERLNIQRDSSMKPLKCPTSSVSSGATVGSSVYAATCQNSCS
Text: 3. Antagonistic Experiment with Exendin9-39
In order to corroborate that the active compounds had receptor specificity with respect to their activating effects on reporter gene and intracellular cAMP, Exendin9-39 (Eur. J. Pharmacol, 1994, 269: 183-191; Metabolism 2004, 53:252-259.), a specific antagonist of GLP-1R, was used to validate whether it could antagonize the agonistic activity of the above representative compounds to GLP-1R.
(§1) Cell strain: HEK 293/GLP-1R+Luc cell strain, in which GLP-1R and luciferase are stably expressed (self-made by National New Drugs Screening Center);
(§2) HEK 293/GLP-1R+Luc cells were inoculated, in a quantity of 20,000/100 μl/well, into a 96-well culture plate, and cultured at 37° C. overnight with a DMEM culture medium containing 10% fetal bovine serum and 500 μg/ml G418. Exendin9-39 was diluted to a certain concentration gradient, which was then added, in a quantity of 1 μl/well, into the above 96-well culture plate. The culture was performed under the conditions of 37° C., 5% CO2 for 6 h. Thereafter, the activity of luciferase was detected according to the specification in the kit of Steady-Glo™ luciferase analytic system, and the reading was performed by using a Victor^2 plate-reading machine.

HEK 293/GLP-1R+Luc cells = experiment: Cytotoxicity noted in the reporter gene test; format: cell-based, human; conditions: 6 h
Text: GLP-1R is a G-protein coupling receptor. When GLP-1R binds to an agonist, the Ga subunit of G protein is activated to stimulate adenylate cyclase, which leads to the increase in the concentration of intracellular cAMP. Since the promoter region of proinsulin gene has a cAMP response element, cAMP promotes, after binding to this response element, the transcription of the proinsulin gene, thereby stimulating the expression and secretion of insulin (Diabetes, 2000, Vol. 49: 1156-1164). The experimental method employs a human embryonal nephric cell strain (HEK 293) which is stably transfected with the expression vector of GLP-1R gene and the expression vector of luciferase reporter gene under the regulation of cAMP response element, to detect its response to the candidate compound (Cell Biology, 1992, Vol. 89: 8641-8645; Proc. Natl. Acad. Sci. U.S.A. 1987, Vol. 84: 3434-3438). […]
as §2, with “Exendin9-39 was diluted to a certain concentration gradient, which was then added, in a quantity of 1 μl/well, into the above 96-well culture plate. The culture was performed under the conditions of 37° C., 5% CO2 for 6 h.” left out

GLP-1R [2] = target: T1, GLP-1R; experiment: Testing the expression of reporter gene (luciferase under cAMP response element) in HEK 293/GLP-1R+Luc cells; format: cell-based; conditions: 6 h
Text: 1. Testing the Expression of Reporter Gene
GLP-1R is a G-protein coupling receptor. When GLP-1R binds to an agonist, the Ga subunit of G protein is activated to stimulate adenylate cyclase, which leads to the increase in the concentration of intracellular cAMP. Since the promoter region of proinsulin gene has a cAMP response element, cAMP promotes, after binding to this response element, the transcription of the proinsulin gene, thereby stimulating the expression and secretion of insulin (Diabetes, 2000, Vol. 49: 1156-1164). The experimental method employs a human embryonal nephric cell strain (HEK 293) which is stably transfected with the expression vector of GLP-1R gene and the expression vector of luciferase reporter gene under the regulation of cAMP response element, to detect its response to the candidate compound (Cell Biology, 1992, Vol. 89: 8641-8645; Proc. Natl. Acad. Sci. U.S.A. 1987, Vol. 84: 3434-3438). When screening the candidate compounds, the compounds that may induce the expression of luciferase reporter gene are regarded as having the activity of activating GLP-1R.
as §1
as §2, with “Exendin9-39 was diluted to a certain concentration gradient, which was then added, in a quantity of 1 μl/well, into the above 96-well culture plate.” left out

GLP-1R [3] = target: T1, GLP-1R; experiment: Determination of the concentration of intracellular cAMP (CatchPoint Cyclic AMP kit) in HEK 293/GLP-1R+Luc cells; format: cell-based; conditions: 10 min
Text: 2. Determination of the Concentration of Intracellular cAMP
Since the concentration of intracellular cAMP can only be indirectly evaluated according to the above method for detecting the activation of reporter gene, it is necessary to determine the influence of active compounds on the concentration of intracellular cAMP by using a cAMP-determining kit, i.e., a functional re-screening.
cAMP-determining kit (Molecular Devices Co., CatchPoint® Cyclic AMP kit);
HEK 293/GLP-1R+Luc cell strain, in which GLP-1R and luciferase are stably expressed (self-made by National New Drugs Screening Center);
HEK 293/GLP-1R+Luc cells were inoculated, in a quantity of 20,000/100 μl/well, into a 96-well culture plate, and cultured at 37° C. overnight. The candidate compounds S4P, S3-20-32, S3-11-14, S6-14 and S8 were respectively diluted to a certain concentration gradient, which were then added, in a quantity of […], into the above 96-well culture plate. The culture was performed under the conditions of 37° C., 5% CO2 for 10 min. Thereafter, the concentration of intracellular cAMP was determined according to the specification in CatchPoint® Cyclic AMP kit.
The lower the reading was, the higher the concentration of intracellular cAMP was.

[4] = final concentration 0.00001 mg/ml
[5] = final concentration 0.00003 mg/ml
[6] = final concentration 0.0001 mg/ml
[7] = final concentration 0.0003 mg/ml
[8] = final concentration 0.001 mg/ml
[9] = final concentration 0.003 mg/ml

antagonistic effect of Exendin9-39 on S4P (% reaction, taking the reaction of 3 μM S4P as 100%) (GLP-1R [1]; Exendin9-39 final concentration 0.03 nM): 101.8115%
antagonistic effect of Exendin9-39 on S4P (% reaction, taking the reaction of 3 μM S4P as 100%) (GLP-1R [1]; Exendin9-39 final concentration 0.1 nM): 96.64%
antagonistic effect of Exendin9-39 on S4P (% reaction, taking the reaction of 3 μM S4P as 100%) (GLP-1R [1]; Exendin9-39 final concentration 0.3 nM): 83.84%
antagonistic effect of Exendin9-39 on S4P (% reaction, taking the reaction of 3 μM S4P as 100%) (GLP-1R [1]; Exendin9-39 final concentration 1 nM): 90.78%
antagonistic effect of Exendin9-39 on S4P (% reaction, taking the reaction of 3 μM S4P as 100%) (GLP-1R [1]; Exendin9-39 final concentration 3 nM): 72.84%
antagonistic effect of Exendin9-39 on S4P (% reaction, taking the reaction of 3 μM S4P as 100%) (GLP-1R [1]; Exendin9-39 final concentration 10 nM): 52.48%
antagonistic effect of Exendin9-39 on S4P (% reaction, taking the reaction of 3 μM S4P as 100%) (GLP-1R [1]; Exendin9-39 final concentration 30 nM): 32.33%
antagonistic effect of Exendin9-39 on S4P (% reaction, taking the reaction of 3 μM S4P as 100%) (GLP-1R [1]; Exendin9-39 final concentration 100 nM): 18.77%
antagonistic effect of Exendin9-39 on S4P (% reaction, taking the reaction of 3 μM S4P as 100%) (GLP-1R [1]; Exendin9-39 final concentration 300 nM): 15.97%
antagonistic effect of Exendin9-39 on S4P (% reaction, taking the reaction of 3 μM S4P as 100%) (GLP-1R [1]; Exendin9-39 final concentration 1000 nM): 27.97%
antagonistic effect of Exendin9-39 on S4P (% reaction, taking the reaction of 3 μM S4P as 100%) (GLP-1R [1]; Exendin9-39 final concentration 3000 nM): 14.57%
antagonistic effect of Exendin9-39 on S4P (% reaction, taking the reaction of 3 μM S4P as 100%) (GLP-1R [1]; Exendin9-39 final concentration 10000 nM): 15.22%
receptor specificity of the biological activity (GLP-1R [1]; antagonised by Exendin9-39): mediated by GLP-1R
expression of the reporter gene (% reaction, taking the reaction of 30 nM GLP-1 as 100%) (GLP-1R [2]; final concentration 0.000003 mg/ml): 5.157%
expression of the reporter gene (% reaction, taking the reaction of 30 nM GLP-1 as 100%) (GLP-1R [2]; [4]): 5.151%
expression of the reporter gene (% reaction, taking the reaction of 30 nM GLP-1 as 100%) (GLP-1R [2]; [5]): 5.276%
expression of the reporter gene (% reaction, taking the reaction of 30 nM GLP-1 as 100%) (GLP-1R [2]; [6]): 5.697%
expression of the reporter gene (% reaction, taking the reaction of 30 nM GLP-1 as 100%) (GLP-1R [2]; [7]): 10.19%
expression of the reporter gene (% reaction, taking the reaction of 30 nM GLP-1 as 100%) (GLP-1R [2]; [8]): 22.23%
expression of the reporter gene (% reaction, taking the reaction of 30 nM GLP-1 as 100%) (GLP-1R [2]; [9]): 35.55%
expression of the reporter gene (% reaction, taking the reaction of 30 nM GLP-1 as 100%) (GLP-1R [2]; final concentration 0.01 mg/ml): 41.19%
concentration of the intracellular cAMP (relative fluoresence intensity; lower reading = higher cAMP) (GLP-1R [3]; [4]): 3536.618 RFU
concentration of the intracellular cAMP (relative fluoresence intensity; lower reading = higher cAMP) (GLP-1R [3]; [5]): 2924.461 RFU
concentration of the intracellular cAMP (relative fluoresence intensity; lower reading = higher cAMP) (GLP-1R [3]; [6]): 2985.794 RFU
concentration of the intracellular cAMP (relative fluoresence intensity; lower reading = higher cAMP) (GLP-1R [3]; [7]): 2708.597 RFU
concentration of the intracellular cAMP (relative fluoresence intensity; lower reading = higher cAMP) (GLP-1R [3]; [8]): 1910.855 RFU
concentration of the intracellular cAMP (relative fluoresence intensity; lower reading = higher cAMP) (GLP-1R [3]; [9]): 2072.988 RFU
concentration of the intracellular cAMP (relative fluoresence intensity; lower reading = higher cAMP) (GLP-1R [3]; final concentration 0.01 mg/ml): 2310.616 RFU
concentration of the intracellular cAMP (relative fluoresence intensity; lower reading = higher cAMP) (GLP-1R [3]; final concentration 0.03 mg/ml): 2480.017 RFU
Compound: COc1cc(C2C(NC(=O)c3ccc(NC(=O)C4CCCC4)cc3)(C(=O)O)C(c3ccc(OC(=O)c4cccs4)c(OC)c3)C2(NC(=O)c2ccc(NC(=O)C3CCCC3)cc2)C(=O)O)ccc1OC(=O)c1cccs1 (centres unmarked) [Compound S4P]
cytotoxicity in the reporter gene test (HEK 293/GLP-1R+Luc cells; final concentration 0.03 mg/ml): cytotoxic
cytotoxicity in the reporter gene test (HEK 293/GLP-1R+Luc cells; final concentration 0.1 mg/ml): cytotoxic

effect on the expression of reporter gene induced by S4P (GLP-1R [1]; Table 3, FIG. 6): inhibit, in a dose-dependent manner
Compound: Exendin9-39 [reference compound]
